Measurements taken from PMC11626117 (Proceedings of the National Academy of Sciences of the …, 2024).

Molecular target: CoaX (Rv3600c) (Mycobacterium tuberculosis, UniProt P9WPA1)
Sequence (P9WPA1 whole entry, looked up): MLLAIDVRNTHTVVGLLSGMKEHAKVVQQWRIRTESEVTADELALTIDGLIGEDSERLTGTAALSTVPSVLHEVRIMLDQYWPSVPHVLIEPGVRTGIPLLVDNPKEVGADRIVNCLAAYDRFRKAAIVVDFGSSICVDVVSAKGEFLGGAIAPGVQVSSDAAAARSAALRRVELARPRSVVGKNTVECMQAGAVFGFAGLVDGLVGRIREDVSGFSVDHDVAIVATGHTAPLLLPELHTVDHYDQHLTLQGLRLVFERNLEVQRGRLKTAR

Compound: Nc1ncnc2c1ncn2[C@@H]1O[C@H](COP(=O)(O)OP(=O)(O)OP(O)(O)=S)[C@@H](O)[C@H]1O [ATPγS]
- thermal shift: increasing concentrations of ATPγS in the presence of pantothenate had the largest effect

Compound: CC(C)(CO)[C@@H](O)C(=O)NCCC(=O)O [pantothenate]
- thermal shift: Increasing pantothenate concentration had a subtle effect on CoaX thermostability
